Data reported in EP0376518B1, “Phospholipid nucleosides” (ELI LILLY AND COMPANY, priority 1988, dated 1990).

System: M-5 ovarian carcinoma
Experiment: Test 1: M-5 ovarian carcinoma in mice, single dose
Assay type: in vivo
Details: single dose two days after inoculation; for Toxicity (number of animals which exhibited signs of toxicity): group of 10 mice; for Inhibition (percent inhibition of tumor growth): tumors measured 13 days after inoculation
Excerpt: Representative compounds of the invention have been tested using murine tumors in female mice to determine their antineoplastic efficacy. Several different tumor systems have been used in these tests, and the compounds have been administered on a number of different dosage schedules. In general, all the tests were started by inoculating female mice with the tumor, subcutaneously. After some number of days delay, intraperitoneal administration of the test compound was begun. Each treatment group consisted of 10 mice, and untreated control groups were included in all experiments. At the completion of the treatment period, the tumors of the control and the treated mice were measured and the mass of them calculated from the measurements. The data are reported here as percent inhibition of tumor growth, based on the tumors of the untreated control mice.
The tumor in this test was M-5 ovarian carcinoma; the compounds were administered as a single dose, two days after inoculation, and the tumors were measured 13 days after inoculation.

Compound: CCCCCCCCCCCCCCCCCCC(COP(=O)(O)OP(=O)(O)OC[C@H]1O[C@@H](n2ccc(N)nc2=O)C(F)(F)[C@@H]1O)OCC (stereo partly shown) [Example 3, 2′-Deoxy-2′,2′-difluorocytidine, 5′-(dihydrogen diphosphate), P′-(2-ethoxyeicosyl) ester]
- Toxicity (number of animals which exhibited signs of toxicity) (50 mg/kg intraperitoneal): 0/10
- Inhibition (percent inhibition of tumor growth) (50 mg/kg intraperitoneal): 53%
- Toxicity (number of animals which exhibited signs of toxicity) (100 mg/kg intraperitoneal): 0/10
- Inhibition (percent inhibition of tumor growth) (100 mg/kg intraperitoneal): 64%
